Data reported in ChEMBL document CHEMBL2407085, “Structure-Activity Relationships and in Vivo Evaluation of Quinoxaline Derivatives for PET Imaging of β-Amyloid Plaques” (ACS Med Chem Lett, 2013).
The source made the active and inactive calls. No cut-off for these calls is given here.

Legend:
[1] = system: Mus musculus; assay: Biodistribution in Tg2576 ddY mouse olfactory tract at 5.5 MBq, iv by autoradiography; type: ADME, organism-based; details: in vivo
[2] = system: Mus musculus; assay: Biodistribution in Tg2576 ddY mouse external capsule at 5.5 MBq, iv by autoradiography; type: ADME, organism-based; details: in vivo
[3] = system: Brain; assay: Biodistribution in Tg2576 ddY mouse brain at 23.4 to 48.2 kBq, iv measured at 2 to 10 mins by autoradiography; type: ADME, organism-based; details: in vivo
[4] = Drug uptake in Alzheimer's disease patient white matter at 370 kBq/100 uL after 1 hr by thioflavin-S based autoradiography; type: ADME, tissue-based; details: human, in vitro
[5] = system: Brain; assay: Biodistribution in Tg2576 ddY mouse brain at 23.4 to 48.2 kBq, iv measured at 60 mins by autoradiography; type: ADME, organism-based; details: in vivo, 1 h
[6] = system: Brain; assay: Ratio of drug uptake in ddY mouse brain at 23.4 to 48.2 kBq, iv measured at 2 mins to drug uptake in ddY mouse brain at 23.4 to 48.2 kBq, iv measured at 60 mins; details: in vivo
[7] = biological target: T1, Amyloid-beta precursor protein (Homo sapiens, UniProt P05067); assay: Binding affinity to beta-amyloid plaque in Alzheimer's disease patient brain cortex after 1 hr by thioflavin-S based autoradiography
[8] = system: Mus musculus; assay: Biodistribution in Tg2576 ddY mouse corpus callosum at 5.5 MBq, iv by autoradiography; type: ADME, organism-based; details: in vivo
[9] = system: Mus musculus; assay: Biodistribution in Tg2576 ddY mouse anterior commissure at 5.5 MBq, iv by autoradiography; type: ADME, organism-based; details: in vivo
[10] = system: Mus musculus; assay: Ex vivo binding affinity to beta-amyloid plaque in Tg2576 mouse brain at 5.5 MBq, iv measured at 1 hr by Thioflavin-S fluorescence microscopy; type: functional, organism-based; details: 5.5 M, tested as the 18F-labelled form
[11] = system: Mus musculus; assay: Ex vivo binding affinity to beta-amyloid plaque in wild-type mouse brain at 5.5 MBq, iv measured at 1 hr by Thioflavin-S fluorescence microscopy; type: functional, organism-based; details: 5.5 M, tested as the 18F-labelled form
[12] = biological target: T1, Amyloid-beta precursor protein; assay: Displacement of [125I]IMPY from amyloid beta (1 to 42) (unknown origin) after 3 hrs by gamma counting
[13] = biological target: T1, Amyloid-beta precursor protein; assay: Ratio of AV-45 Ki to compound Ki for amyloid beta (1 to 42) (unknown origin) […] by gamma counting

T1 sequence (P05067 whole entry): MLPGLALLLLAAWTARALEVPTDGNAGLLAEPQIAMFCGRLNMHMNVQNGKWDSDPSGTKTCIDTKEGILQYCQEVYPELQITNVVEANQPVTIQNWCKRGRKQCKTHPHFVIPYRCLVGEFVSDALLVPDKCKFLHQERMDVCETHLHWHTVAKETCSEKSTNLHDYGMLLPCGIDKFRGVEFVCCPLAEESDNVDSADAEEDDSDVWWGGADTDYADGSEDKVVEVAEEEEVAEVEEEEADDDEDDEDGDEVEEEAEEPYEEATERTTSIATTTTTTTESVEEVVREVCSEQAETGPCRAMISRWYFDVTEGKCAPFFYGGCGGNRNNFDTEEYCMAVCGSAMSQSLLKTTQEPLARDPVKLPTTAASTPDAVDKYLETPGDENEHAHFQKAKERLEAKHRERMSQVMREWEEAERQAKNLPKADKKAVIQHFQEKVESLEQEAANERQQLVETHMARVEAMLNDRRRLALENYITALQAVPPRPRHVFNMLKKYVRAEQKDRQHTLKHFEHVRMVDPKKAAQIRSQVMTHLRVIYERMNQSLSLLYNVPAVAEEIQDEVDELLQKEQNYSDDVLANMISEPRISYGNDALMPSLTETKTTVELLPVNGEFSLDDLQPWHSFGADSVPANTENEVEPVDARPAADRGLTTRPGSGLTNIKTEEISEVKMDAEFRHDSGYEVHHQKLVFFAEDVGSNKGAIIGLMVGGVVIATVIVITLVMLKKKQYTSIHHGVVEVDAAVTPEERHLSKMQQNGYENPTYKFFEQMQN

Drug uptake [3]	Drug uptake [4]	Ratio [6]	SMILES	Drug uptake [5] [% ID/g]	Ki [7] [nM]	other results
–	–	–	CN(C)c1ccc(-c2cnc3cc(OCCF)ccc3n2)cc1	–	–	Activity [10]: Active; Activity [11]: Active; Ki [12]: 0.895 nM; Ratio Ki [13]: 10
–	–	–	CNc1ccc(/C=C/c2ccc(OCCOCCOCCF)nc2)cc1 [FLORBETAPIR]	–	–	Ki [12]: 12.8 nM
Active	–	3.8	CNc1ccc(/C=C/c2ccc(OCCOCCOCC[18F])nc2)cc1 [FLORBETAPIR F 18]	–	–	–
4.69 % ID/g	Active	2.36	CNc1ccc(-c2cnc3ccc(OCC[18F])cc3n2)cc1	1.48	> 242	–
4.69 % ID/g	Active	2.36	Nc1ccc(-c2cnc3cc(OCC[18F])ccc3n2)cc1	1.48	> 242	–
4.69 % ID/g	Active	2.36	Nc1ccc(-c2cnc3ccc(OCC[18F])cc3n2)cc1	1.48	> 242	–

SMILES	Drug uptake [3]	Drug uptake [4]	Ratio [6]	Drug uptake [5] [% ID/g]	Ki [7] [nM]	other results
CN(C)c1ccc(-c2cnc3cc(OCC[18F])ccc3n2)cc1	4.69 % ID/g	Not Active	2.36	1.48	0.895	Drug uptake [1]: Active; Drug uptake [2]: Active; Drug uptake [8]: Active; Drug uptake [9]: Active
CN(C)c1ccc(-c2cnc3ccc(OCC[18F])cc3n2)cc1	4.69 % ID/g	–	3.91	1.48	111	–
CNc1ccc(-c2cnc3cc(OCC[18F])ccc3n2)cc1	4.69 % ID/g	Not Active	2.36	1.48	15.7	–
